Assay results: US20080317700A1 (priority 2006, published 2008)
Like-named read-outs stand apart in the source and are kept apart here.

Assays:
[1] = test system: cyanobacteria Synechococcus 7002; assay: microbe, parasite or virus in culture; format: cell-based
Description: (§1) After phototrophical propagation during the 5 days under cool fluorescence light (intensity 5000 lux), the average radii of inhibition zones were measured. Water soaked filter paper circles were used as controls. Experiments for each herbicide concentration were repeated 3 times.

[2] = test system: natural freshwater biofouling organisms (periphyton); assay: Field trial: periphyton biofouling on coated tiles in artificial stream (chlorophyll extraction); details: for Extracted chl (periphyton chl biomass) per tile: 459S2 coating with 0.15 M herbicide on ceramic tiles, 10 days in flow channels, bare tiles 11.1±2.87, blank resin 9.35±1.07
Description: Field tests were conducted during July and August, 2006 at the University of Michigan Biological Station Experimental Stream Laboratory located near Douglas Lake, Pellston, Mich. Resin 459S2 containing 0.15 M of a designated herbicide was coated on terracotta ceramic tiles (3×6 inches) pretreated with silanes for improved adhesion and photocured by an H-bulb system obtained from Fusion Inc. The coating thickness was 12.5 μm (0.5 mil). Bare tiles and tiles coated with 459S2 containing no additive were used as controls. Nine tiles for each series were placed into separate flow channels with a constant water flow of 3 L min^−1 for each channel. Each flow channel utilized water pumped from the East Branch of the Maple River containing natural freshwater biofouling organisms. Each flow channel was covered with a mesh screen to reduce direct light exposure and to ensure more favorable growth conditions. Tiles were left in the flow channels for 10 days.
Chlorophyll (chl) biomass attached to the surface of each tile was determined after the tiles had been washed three times with tap water to remove mud and other loosely attached species. The coated surface of the tile was submerged into a plastic vessel containing 25 mL of 90/10 acetone/saturated aqueous MgCl2. The container itself was placed into an ultrasonic bath and the entire system was sonicated for 30 seconds to facilitate chl extraction. The UV-vis spectrum of each extract was measured on a Shimadzu diode-array spectrophotometer using a 1 cm quartz cell. The amount of chl was determined using the following equation:^29
where Aλ1-λ2 is the difference in absorbance at two designated wavelengths and l is the spectroscopic cell pathlength. Two independent field trials were conducted.

green algae CD 1 Red [3] = format: cell-based; details: BG-11 agar, 1 mM herbicide, homopolymer as film cast in Petri dish
Description: BG-11 medium containing 1.5 wt. % agar was prepared and sterilized at 121° C., 1.05 kg cm^−2 for 20 minutes. Each herbicide tested was prepared as a 30 mM solution and added to the autoclaved agar medium to yield a 1 mM final concentration of the herbicide. A 20 mL aliquot of the liquid agar was transferred into a standard Petri dish (100×15 mm) and allowed to harden at room temperature. Cell suspensions of green algae CD 1 Red, cyanobacteria Synechocystos 6803 and Synechococcus 7002 were inoculated using a sterile inoculation loop. Dishes were stored at 25° C. under illumination with the cool-white fluorescent light having a constant light intensity of 5000 lx. The experiment for each herbicide was repeated five times. Control and treated cultures grew under the same conditions of temperature and photoperiod. In each experiment, the inhibition of growth in treated cultures was monitored relative to the growth in control samples using qualitative visual observation.
Additional experiments for testing the toxicity of the homopolymer of AA were implemented. Ten mL of aqueous polymer solution was placed on a sterile Petri dish and left at room temperature until all water was evaporated (3 days) to form a thin polymer film. Twenty mL of the liquid agar was transferred into the Petri dish and allowed to harden at room temperature. Cell suspensions of green algae CD 1 Red, cyanobacteria Synechocystos 6803 and Synechococcus 7002 were inoculated using a sterile inoculation loop. An analogous system containing no polymer film was used as a control for the experiment. Inhibition of growth in treated cultures was monitored relative to the growth in control samples using qualitative visual observations.

green algae CD 1 Red [4] = assay: Liquid culture growth inhibition (optical density), green algae; format: cell-based; details: CD1 Red, BG-11 liquid medium, 1 mM herbicide, control 0.55
Description: Strains of green algae, cyanobacteria and E. Coli were used as test organisms. The green algae CD 1 Red and cyanobacteria Synechocystos 6803 were obtained from the collection of Prof. George Bullerjahn. Salt water strain of cyanobacteria Synechococcus 7002 was obtained from the collection of Prof. Michael McKay. E Coli DH 5α was obtained from Invitrogen Inc.
Green algae and cyanobacteria were propagated photoautotrophically in 250 mL Erlenmeyer flasks containing 100 mL of liquid BG-11 culture medium (see Supporting Information). The cultures were kept on a rotating shaker (100 rpm) at 25° C. for 4 days and continuously illuminated with cool-white fluorescent light with a constant light intensity of 5000 lux. The grown culture medium was sterilized in an autoclave at 121° C. and 1.05 kg cm^−2 pressure for 20 min. For the cell experiments, 20 mL aliquots of the BG-11 medium containing the green algal ([cells]initial=5.9×10^7 mL^−1) or cyanobacteria cells ([cells]initial=1.7×10^9 mL^−1) were placed in sterile 50 mL Erlenmeyer flasks. […] Cell counts were correlated with the absorbance and measured as a function of time using a Spectronic 20 Genesis spectrophotometer. […] In each experiment, the inhibition of cell growth in treated cultures was monitored spectrophotometrically and compared to the growth in control samples.

green algae CD 1 Red [5] = assay: organism not typed; format: cell-based
Description: as §1

[6] = test system: Phaeodactylum tricornutum; assay: Inhibition zones around polymer pellets, diatom Phaeodactylum; format: cell-based; details: Phaeodactilum, pellet without herbicide 0
Description: Rectangular copolymer pellets (15×10×1.5 mm) were formed from a model acrylic resin (designated as 459S2) containing several epoxy acrylic oligomers (57%), acrylic monomeric diluents (43%) and a corresponding amount of herbicide. A designated quantity of herbicide was dispersed or partially dissolved in 459S2 resin using ultrasonication and heat (60° C., overnight). To each sample, 1.5% wt. of commercial photoinitiator (ITX), 5% of ODAB synergist and 0.1% co-photoinitiator (Irgacure 819) were added. Liquid formulations were poured into an open top Teflon mold and irradiated under N2 by a 395 nm LED light source for 5 min followed by pellet removal.
Two different diatom cultures, Phaeodactylum tricornutum and Navicula pelliculosa were used in the biological activity tests. […] Following propagation over 5 days under continuous cool fluorescent light (5000 lx), the average radii of inhibition zones were measured. Experiments for each herbicide concentration were repeated at least two times.

[7] = Syn. 7002, herbicide concentration 0.3 mM, 5 days
[8] = Synechococcus, 120 h, read-out: Average radii of the inhibition zones
[9] = CD1 Red, herbicide concentration 0.3 mM, 5 days
[10] = CD1 Red, herbicide concentration 3 mM, 5 days
[11] = herbicide 0.1 M in 459S2 polymer pellet
[12] = herbicide 0.3 M in 459S2 polymer pellet

Row | SMILES | Average radii of the inhibition zones [1, 7] | Average radii of the inhibition zones ([1]; Syn. 7002, herbicide concentration 3 mM, 5 days) | zone of inhibition at 30000 µM [1, 8] [mm] | zone of inhibition at 300000 µM [1, 8] [mm] | Extracted chl (periphyton chl biomass) per tile [2] [μg tile^−1] | Periphyton chl relative to tiles containing unfunctionalized glyphosate ([2]; 459S2 coating with 0.15 M herbicide, 10 days, unpaired two-tailed t-test, P<0.05) | Growth on agar plates compared to control (visual) (green algae CD 1 Red [3]) | Optical Density at 680 nm after 7 days of media growth (green algae CD 1 Red [4]) | zone of inhibition at 300000 µM (green algae CD 1 Red [5]; 120 h, read-out: Average radii of the inhibition zones) [mm] | Average radii of the inhibition zones (green algae CD 1 Red [5]; [9]) | Average radii of the inhibition zones (green algae CD 1 Red [5]; [10]) | Average radii of the inhibition zones (green algae CD 1 Red [5]; CD1 Red, herbicide concentration 30 mM, 5 days) | Diameter of Inhibition Zone (Bleaching indicates no growth detected on 100 mm plate) [6, 11] [mm] | Diameter of Inhibition Zone (Bleaching indicates no growth detected on 100 mm plate) [6, 12] | Average radii of the inhibition zones ([1]; Syn. 7002, herbicide concentration 300 mM, 5 days) | zone of inhibition at 3000 µM ([1]; Synechococcus, 120 h, Syn. 7002, herbicide concentration 3 mM, 5 days, read-out: Average radii of the inhibition zones) [mm] | zone of inhibition at 30000 µM ([1]; Synechococcus, 120 h, Syn. 7002, herbicide concentration 30 mM, 5 days, read-out: Average radii of the inhibition zones) [mm] | zone of inhibition at 30000 µM (green algae CD 1 Red [5]; 120 h, CD1 Red, herbicide concentration 30 mM, 5 days, read-out: Average radii of the inhibition zones) [mm] | Average radii of the inhibition zones (green algae CD 1 Red [5]; CD1 Red, herbicide concentration 300 mM, 5 days)
1 | C=CC(=O)N(CC(=O)O)CP(=O)(O)O [AA, N-Acryloyl-N-(phosphonomethyl)glycine] | No | No | 6.5 | 15 | 7.92±1.12 | roughly one-third | complete inhibition of growth and bleaching | 0.02 | 10 | No | No | No | 23 ± 2 | Bleaching |  |  |  |  | 
2 | O=C(O)CNCP(=O)(O)O [Glyphosate, N-(Phosphonomethyl)glycine, reference compound] | No |  |  |  | 11.9±2.56 |  | complete inhibition of growth and bleaching | 0.02 |  | No | No |  | 17.5 ± 2 | Bleaching | Complete | 6 | 8 | 7.5 | Complete
